Test results as given in patent US20050009809A1, “Acridine derivatives and their use as medicaments” (priority 2003, published 2005).
≈ marks a conversion by molar mass, not a printed value. Like-named read-outs stand apart in the source and are kept apart here.

Columns and labels:
[1] = Saturation solubility in water; conditions: for solubility: water, thermodynamic from solid; for Water solubility compared to the comparison substances: versus comparison substances of WO0208194
Description: The saturation solubility in water is determined as described below. For incipient dissolution of the substances and to improve wetting of the samples, at most 1% of DMSO is added. To check the content, an HPLC-UV method was used.

[2] = tested on: ovarian adenocarcinoma cell line SKOV-3; assay: XTT proliferation assay, SKOV-3; format: cell-based, human; conditions: for EC50: Homo sapiens, SK-OV-3, read-out: XTT proliferation assay, EC50, SKOV3
Description: (§1) The substances according to the invention were investigated for their antiproliferative activity in a proliferation test on established tumor cell lines. The test used determines the cellular dehydrogenase activity and makes possible a determination of the cell vitality and indirectly the cell count. The cell lines used are the human cervical carcinoma cell line KB/HeLa (ATCC CCL17), the ovarian adenocarcinoma cell line SKOV-3 (ATCC HTB77), the human glioblastoma cell line […] (NCI 503138) and the lung carcinoma cell line NCI-H460 (NCI 503473).
(§2) The adherently growing tumor cell lines KB/HeLa, SKOV-3, SF-268 and NCI-H460 were cultured under standard conditions in a fumigation incubator at 37° C., 5% CO2 and 95% atmospheric humidity. On experimental day 1, the cells are detached using trypsin/EDTA and pelleted by centrifugation. Subsequently, the cell pellet is resuspended in the respective culture medium at the corresponding cell count and reacted in a 96-well microtiter plate. The plates are then cultured overnight in the fumigation incubator. The test substances are prepared as 1 mg/ml stock solutions in DMSO and diluted to the appropriate concentrations on experimental day 2 using culture medium. The substances in culture medium are then added to the cells and incubated in the fumigation incubator for 45 h. As a control, cells which are not treated with test substance are used. For the XTT assay, 1 mg/ml of XTT (sodium 3′-[1-(phenylaminocarbonyl)-3,4-tetrazolium]-bis(4-methoxy-6-nitro)benzenesulfonic acid) is dissolved in RPMI-1640 medium without Phenol Red. Additionally, a 0.383 mg/ml PMS (N-methyldibenzopyrazine methylsulfate) solution in phosphate-buffered saline solution (PBS) is prepared. On experimental day 4, 75 μl/well of XTT-PMS mixture is pipetted onto the cell plates which in the meantime have been incubated with the test substances for 45 h. For this, shortly before use, the XTT solution is mixed with the PMS solution in the ratio 50:1 (vol:vol). The cell plates are then incubated in the fumigation incubator for a further 3 h and the optical density (OD490 nm) is determined in a photometer. By means of the OD490 nm determined, the percentage inhibition is calculated relative to the control and plotted semilogarithmically in the form of a concentration-action curve. The EC50 is calculated by means of a regression analysis from the concentration-action curve using the program Graphpad Prism.

[3] = tested on: human glioblastoma cell line SF-268; assay: XTT proliferation assay, SF-268; format: cell-based; conditions: for EC50: Homo sapiens, read-out: XTT proliferation assay, EC50, SF-268
Description: as §1, §2

[4] = tested on: lung carcinoma cell line NCI-H460; assay: XTT proliferation assay, NCI-H460; format: cell-based, human; conditions: for EC50: Homo sapiens, read-out: XTT proliferation assay, EC50, NCI-H460
Description: as §1, §2

[5] = tested on: human cervical carcinoma cell line KB/HeLa; assay: XTT proliferation assay, KB/HeLa; format: cell-based; conditions: for EC50: Homo sapiens, read-out: XTT proliferation assay, EC50, KB/Hela
Description: as §1, §2

[6] = NCI-H460 cells, 45 h incubation

Molecule	solubility [1] [µg/mL]	EC50 ([2]; SKOV-3 cells, 45 h incubation) [µg/mL]	EC50 ([3]; SF-268 cells, 45 h incubation) [µg/mL]	EC50 [4, 6] [µg/mL]	EC50 ([5]; KB/HeLa cells, 45 h incubation) [µg/mL]	also measured
O=C(c1c2ccccc2nc2ccccc12)N1CCN(c2cccc(O)c2)CC1 [Acridin-9-yl-[4-(3-hydroxyphenyl)piperazin-1-yl]methanone, reference compound]	0.03 (≈ 0.0782 µM)	–	–	–	–	–
COc1cccc(N2CCN(C(=O)c3c4ccccc4nc4ccccc34)CC2)c1 [Acridin-9-yl-[4-(3-methoxyphenyl)piperazin-1-yl]-methanone, reference compound]	0.42 (≈ 1.06 µM)	–	–	–	–	–
Cc1cccc(N2CCN(C(=O)c3c4ccccc4nc4ccccc34)CC2)n1 [Acridin-9-yl-[4-(6-methylpyridin-2-yl)piperazin-1-yl]methanone, reference compound]	1.07 (≈ 2.8 µM)	–	–	–	–	–
CC(C)NC(=O)Oc1cccc(N2CCN(C(=O)c3c4ccccc4nc4ccccc34)CC2)c1 [Compound 2, 3-[4-(Acridin-9-ylcarbonyl)piperazin-1-yl]phenyl isopropylcarbamate]	–	0.039 (≈ 0.0832 µM)	0.061 (≈ 0.13 µM)	0.062 (≈ 0.132 µM)	0.051 (≈ 0.109 µM)	–
O=C(c1c2ccccc2nc2ccccc12)N1CCN(c2cccc(OP(=O)(O)O)c2)CC1 [Compound 4, Mono-{3-[4-(acridin-9-ylcarbonyl)piperazin-1-yl]phenyl}phosphate]	–	–	–	–	–	XTT proliferation assay, EC50, SKOV3 [2]: 0.208 µg/mL; XTT proliferation assay, EC50, SF-268 [3]: 0.140 µg/mL; XTT proliferation assay, EC50, NCI-H460 [4]: 0.272 µg/mL; XTT proliferation assay, EC50, KB/Hela [5]: 0.018 µg/mL
O=C(c1c2ccccc2nc2ccccc12)N1CCN(c2cccc(OP(=O)(O)Oc3cccc(N4CCN(C(=O)c5c6ccccc6nc6ccccc56)CC4)c3)c2)CC1 [Compound 11, bis-{3-[4-(Acridin-9-ylcarbonyl)piperazin-1-yl]phenyl}phosphate]	–	–	–	–	–	XTT proliferation assay, EC50, SKOV3 ([2]; SKOV-3 cells, 45 h incubation): 0.133 µg/mL; XTT proliferation assay, EC50, SF-268 ([3]; SF-268 cells, 45 h incubation): 0.127 µg/mL; XTT proliferation assay, EC50, NCI-H460 [4, 6]: 0.293 µg/mL; XTT proliferation assay, EC50, KB/Hela ([5]; KB/HeLa cells, 45 h incubation): 0.132 µg/mL
O=C(CCC(=O)N(CCO)CCO)Oc1cccc(N2CCN(C(=O)c3c4ccccc4nc4ccccc34)CC2)c1 [Compound 20, 3-[4-(Acridin-9-ylcarbonyl)piperazin-1-yl]phenyl N,N-bis-(2-hydroxy-ethyl)succinate]	–	–	–	–	–	XTT proliferation assay, EC50, SKOV3 ([2]; SKOV-3 cells, 45 h incubation): 0.014 µg/mL; XTT proliferation assay, EC50, SF-268 ([3]; SF-268 cells, 45 h incubation): 0.021 µg/mL; Absolute solubility in water ([1]; saturation solubility, at most 1% DMSO, HPLC-UV): 143.5 µg/mL; Water solubility compared to the comparison substances [1]: greatly improved water solubilities; XTT proliferation assay, EC50, NCI-H460 [4, 6]: 0.027 µg/mL; XTT proliferation assay, EC50, KB/Hela ([5]; KB/HeLa cells, 45 h incubation): 0.023 µg/mL
CC1(C)OCC(C2OC3OC(C)(C)OC3C2OC(=O)CCC(=O)Oc2cccc(N3CCN(C(=O)c4c5ccccc5nc5ccccc45)CC3)c2)O1 (centres unmarked) [Compound 23, 3-[4-(Acridin-9-ylcarbonyl)piperazin-1-y;]phenyl 5-(2,2-dimethyl-[1,3]dioxolan-4-yl)-2,2-dimethyltetrahydrofuro[2,3-d][1,3]dioxol-6-yl succinate]	–	–	–	–	–	XTT proliferation assay, EC50, SKOV3 ([2]; SKOV-3 cells, 45 h incubation): 0.023 µg/mL; XTT proliferation assay, EC50, SF-268 ([3]; SF-268 cells, 45 h incubation): 0.058 µg/mL; XTT proliferation assay, EC50, NCI-H460 [4, 6]: 0.055 µg/mL; XTT proliferation assay, EC50, KB/Hela ([5]; KB/HeLa cells, 45 h incubation): 0.045 µg/mL
O=C(CCCCOC1C(O)C(O)OC(CO)C1O)Oc1cccc(N2CCN(C(=O)c3c4ccccc4nc4ccccc34)CC2)c1 (centres unmarked) [Compound 26, 3-[4-(Acridin-9-ylcarbonyl)piperazin-1-yl]phenyl 5-(2,3,5-trihydroxy-6-hydroxymethyltetrahydropyran-4-yloxy)pentanoate]	–	0.026 (≈ 0.0403 µM)	0.047 (≈ 0.0728 µM)	0.054 (≈ 0.0836 µM)	0.042 (≈ 0.065 µM)	–
O=C(NCCN1CCOCC1)Oc1cccc(N2CCN(C(=O)c3c4ccccc4nc4ccccc34)CC2)c1 [Compound 29, 3-[4-(Acridin-9-ylcarbonyl)piperazin-1-yl]phenyl (2-morpholin-4-yl-ethyl)carbamate]	41 (≈ 76 µM)	0.017 (≈ 0.0315 µM)	0.024 (≈ 0.0445 µM)	0.027 (≈ 0.05 µM)	0.036 (≈ 0.0667 µM)	Water solubility compared to the comparison substances [1]: greatly improved water solubilities
O=C(NCCCl)Oc1cccc(N2CCN(C(=O)c3c4ccccc4nc4ccccc34)CC2)c1 [Compound 30, 3-[4-(Acridin-9-ylcarbonyl)piperazin-1-yl]phenyl (2-chloroethyl)carbamate]	–	0.019 (≈ 0.0389 µM)	0.026 (≈ 0.0532 µM)	0.025 (≈ 0.0511 µM)	0.029 (≈ 0.0593 µM)	–
Mono-{3-[4-(acridin-9-ylcarbonyl)piperazin-1-yl]phenyl}glutarate [Compound 22]	–	–	–	–	–	XTT proliferation assay, EC50, SKOV3 ([2]; SKOV-3 cells, 45 h incubation): 0.007 µg/mL; XTT proliferation assay, EC50, SF-268 ([3]; SF-268 cells, 45 h incubation): 0.019 µg/mL; XTT proliferation assay, EC50, NCI-H460 [4, 6]: 0.016 µg/mL; XTT proliferation assay, EC50, KB/Hela ([5]; KB/HeLa cells, 45 h incubation): 0.01 µg/mL

Now from value to molecule, other results behind:

solubility [1] [µg/mL]	EC50 ([2]; SKOV-3 cells, 45 h incubation) [µg/mL]	EC50 ([3]; SF-268 cells, 45 h incubation) [µg/mL]	EC50 [4, 6] [µg/mL]	EC50 ([5]; KB/HeLa cells, 45 h incubation) [µg/mL]	Molecule	also measured
83.9 (≈ 202 µM)	–	–	–	–	Cc1cccc(N2CCN(C(=O)c3c4ccccc4nc4cc(O)cc(O)c34)CC2)n1 [Compound 1, (1,3-Dihydroxyacridin-9-yl)-[4-(6-methylpyridin-2-yl)piperazin-1-yl]-methanone]	Water solubility compared to the comparison substances [1]: greatly improved water solubilities
–	0.013 (≈ 0.0164 µM)	0.025 (≈ 0.0315 µM)	0.026 (≈ 0.0328 µM)	0.02 (≈ 0.0252 µM)	O=C(Oc1cccc(N2CCN(C(=O)c3c4ccccc4nc4ccccc34)CC2)c1)Oc1cccc(N2CCN(C(=O)c3c4ccccc4nc4ccccc34)CC2)c1 [Compound 19, bis-{3-[4-(Acridin-9-ylcarbonyl)piperazin-1-yl]phenyl}carbonate]	–
115 (≈ 203 µM)	0.018 (≈ 0.0318 µM)	0.027 (≈ 0.0477 µM)	0.025 (≈ 0.0442 µM)	0.024 (≈ 0.0424 µM)	CN1CCN(C(=O)CCC(=O)Oc2cccc(N3CCN(C(=O)c4c5ccccc5nc5ccccc45)CC3)c2)CC1 [Compound 21, 3-[4-(Acridin-9-ylcarbonyl)piperazin-1-yl]phenyl 4-(4-methylpiperazin-1-yl)-4-oxobutyrate]	Water solubility compared to the comparison substances [1]: greatly improved water solubilities
–	0.023 (≈ 0.0317 µM)	0.048 (≈ 0.0661 µM)	0.072 (≈ 0.0992 µM)	0.04 (≈ 0.0551 µM)	CC1(C)OCC(C2OC3OC(C)(C)OC3C2OCCCCC(=O)Oc2cccc(N3CCN(C(=O)c4c5ccccc5nc5ccccc45)CC3)c2)O1 (centres unmarked) [Compound 24, 3-[4-(Acridin-9-ylcarbonyl)piperazin-1-yl]phenyl 5-[5-(2,2-dimethyl-[1,3]-dioxolan-4-yl)-2,2-dimethyltetrahydrofuro[2,3-d][1,3]dioxol-6-yloxy]-pentanoate]	–
215	0.014	0.029	0.035	0.019	O=C(CCC(=O)OC1C(O)C(O)OC(CO)C1O)Oc1cccc(N2CCN(C(=O)c3c4ccccc4nc4ccccc34)CC2)c1 (centres unmarked) [Compound 25, 3-[4-(Acridin-9-ylcarbonyl)piperazin-1-yl]phenyl 2,3,5-trihydroxy-6-hydroxymethyltetrahydropyran-4-yl succinate]	Water solubility compared to the comparison substances [1]: greatly improved water solubilities
